{"source": "patent US7550469B2", "about": "“Heterocyclic amide derivatives and their use as dopamine D3 receptor ligands” (Aventis Pharmaceuticals Inc., priority 2001, dated 2009)", "target": "T1, cloned human alpha-1A adrenergic receptors (α1a) (Homo sapiens, UniProt P35348)", "T1 construct": "expressed in transfected cells; host or cells: CHO cells, G418-resistant clone, pcDNA3 vector; membrane fragments", "T1 sequence (P35348 1-466)": "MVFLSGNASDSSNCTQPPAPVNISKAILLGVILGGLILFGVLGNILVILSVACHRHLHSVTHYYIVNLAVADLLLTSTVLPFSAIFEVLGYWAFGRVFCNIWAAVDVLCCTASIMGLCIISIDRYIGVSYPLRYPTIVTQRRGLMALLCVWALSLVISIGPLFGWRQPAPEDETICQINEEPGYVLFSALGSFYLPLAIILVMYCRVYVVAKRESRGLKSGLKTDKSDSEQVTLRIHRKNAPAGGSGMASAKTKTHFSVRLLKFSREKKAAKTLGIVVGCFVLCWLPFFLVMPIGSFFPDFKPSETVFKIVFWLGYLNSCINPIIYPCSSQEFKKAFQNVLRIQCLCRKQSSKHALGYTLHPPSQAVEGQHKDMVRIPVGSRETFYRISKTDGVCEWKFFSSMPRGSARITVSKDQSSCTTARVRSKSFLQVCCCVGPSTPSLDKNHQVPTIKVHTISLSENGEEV", "test": "[3H]Prazosin binding to cloned human alpha-1A adrenergic receptors expressed in CHO cells", "text": "^3H]PRAZOSIN BINDING TO CLONED HUMAN ALPHA-1A ADRENERGIC RECEPTORS (α1a) EXPRESSED IN CHINESE HAMSTER OVARY CELLS (CHO)\nPurpose: This in vitro assay is designed as a screen to identify compounds displaying a affinity for the human α1a adrenoceptor subtype expressed in the membrane fragments of CHO cells. The assay measures the ability of the test compounds to displace [^3H] prazosin from α1a sites. • The identification of multiple vascular α1-addrenoceptors (α1a, α1b, α1d) in vitro has provided impetus to define the role(s) of these subtypes in cardiovascular regulation in vivo (Vargas and Gorman, 1995). […] Prazosin is a potent antagonist of the human α1a-adrenoceptor subtype, which has been cloned and is expressed in the membrane fragments of CHO cells. hα1a Receptor: The cloning of the human α1a cDNA was accomplished first by screening a human prostate cDNA library (Clontech), from which a portion of the coding region was obtained. This DNA fragment was then used to screen a human leukocyte genomic library (Clontech), and the rest of the coding sequence was obtained. Later these two fragments were spliced together. The entire coding sequence was then fully sequenced including matching PCR sequence with original genomic coding sequence, thus ensuring splice sites were joined correctly (Schwinn et al., 1995). Once sequenced, the gene was subcloned into the expression vector pcDNA3 (Invitrogen). Plasmid DNA was then used for transfection into CHO cells and G418 resistant clones were isolated. A clone expressing high levels of the hα1a receptor (as determined by mRNA and receptor binding data) was chosen and pharmacologically characterized. Culture Media: Media Ingredients for Adherent α1a expressing CHO Culture: • A. HAM's F-12 (Cellgro) • B. 10% 0.2 micron filtered Fetal Bovine Serum (FBS)(Cellgro) • C. 1% 0.2 micron filtered Penicillin-Streptomycin (Celigro) • D. G418 0.2 micron filtered (Geneticin 400 μg/ml)(Cellgro) • Cells are cultured using established methods and procedures in either 150×25 mm culture plates (scale up to 100 plates) or a combination of these plates and 70 roller bottles. One culturing/harvest cycle typically requires 2 weeks and yields between 100-400 mg protein. Plates or bottles are incubated at 37° C.+5% CO2. Storage: Cells are harvested by mechanical scraping, washed using PBS, collected in 250 ml Corning polypropylene centrifuge tubes, spun down (1500RPM) and resuspended in dH2O 10% DMSO (final volume per harvest is approximately 50 ml). Protein determination is made using the Biorad DC Assay Kit. Finally, the appropriate volume is aliquoted into a 2 ml Corning Cryovial (10 mg/1-1.5 ml) which is stored at −80° C. Current Lot Data:\nAssay Requirement: 0.5 cryovials per 96 well plate (assay volume=200 μl/well) [^3H]-Ligand: [7-methoxy-^3H]-Prazosin: 1.0 nM (NEN, NET-823) • 70-87 Ci/mmol Materials: Phentolamine mesylate (Research Biochemicals Int. #P-131) • 96 well flat bottom plates (Beckman) • Unifilter GF/B Plate (Packard) • Polyethylenimine (Sigma #P-3134) • TomTec or Packard Filtermate 196 Cell Harvesters • Packard TopCount Scintillation Counter Buffers: A: 50 mM Tris HCl; 0.1% ascorbate, pH 7.7 (incubation buffer) • B: 50 mM Tris HCl; pH 7.7 (wash buffer) Procedure: Assay additions are as follows (in the order indicated): • Total Binding=50 μl buffer A+50 μl [^3H]prazosin+100 μl membrane • Nonsp. Bd.=50 μl 10 μM phentolamine+50 μl [^3H]prazosin+100 μl membrane • Test Cpd.=50 μl compound+50 μl [^3H]prazosin+100 μl membrane • Compounds to be evaluated are weighed out to yield a 10 mM stock solution in DMSO in a 24 well polystyrene plate. This is diluted to a 0.5 mM stock in dH2O. Serial dilutions in Buffer A are made from which 50 μl additions to the plate are made in duplicate in order to achieve the final concentrations desired. Typically, one 96 well plate is used to evaluate 11 compounds at 4 concentrations (10^−6-10^−9 M) in duplicate. […]", "key": {"[1]": {"settings": "human α-1, 6-fluoro vs 6-trifluoromethyl benzo[b]thiophene pairs, read-out: halpha 1 Ki (nM) h = human"}, "[2]": {"settings": "h = human, piperazines (n = 1) vs homopiperazines (n = 2), read-out: h-α1 Ki"}}, "note": "Like-named read-outs stand apart in the source and are kept apart here.", "data": [{"molecule": "O=C(NCCCCN1CCN(c2csc3cc(C(F)(F)F)ccc23)CC1)c1cc2ccccc2s1", "note": "[814238A]", "values": [{"measurement": "Ki", "setting": "[1]", "value": 78.3, "unit": "nM"}]}, {"molecule": "O=C(NCCCCN1CCN(c2csc3cc(C(F)(F)F)ccc23)CC1)c1ccc(-c2ccccc2)cc1", "note": "[815547A]", "values": [{"measurement": "halpha 1 % I h = human", "setting": "Inh @ 10 uM", "value": 18.7, "unit": "% @ 10 uM"}]}, {"molecule": "O=C(NCCCCN1CCCN(c2csc3cc(F)ccc23)CC1)c1ccc2ccccc2c1", "note": "[822223G]", "values": [{"measurement": "Ki", "setting": "[2]", "value": 123, "unit": "nM"}]}, {"molecule": "O=C(NCCCCN1CCCN(c2csc3cc(F)ccc23)CC1)c1cc2ccccc2s1", "note": "[822224G]", "values": [{"measurement": "Ki", "setting": "[2]", "value": 82.5, "unit": "nM"}]}, {"molecule": "O=C(NCCCCN1CCCN(c2csc3cc(F)ccc23)CC1)c1ccco1", "note": "[S981843]", "values": [{"measurement": "Ki", "setting": "[2]", "value": 5.6, "unit": "nM"}]}, {"molecule": "CCOc1ccc(C(=O)NCCCCN2CCN(c3csc4cc(C(F)(F)F)ccc34)CC2)cc1", "note": "[compound 815541]", "values": [{"measurement": "halpha 1 % I h = human", "setting": "Inh @ 10 uM", "value": 48, "unit": "% Inh @ 10 uM"}, {"measurement": "Ki", "setting": "[1]", "value": 1110, "unit": "nM"}]}, {"molecule": "O=C(NCCCCN1CCN(c2csc3cc(C(F)(F)F)ccc23)CC1)c1ccc(F)cc1F", "note": "[compound 815542]", "values": [{"measurement": "Ki", "setting": "[1]", "value": 68, "unit": "nM"}]}, {"molecule": "O=C(NCCCCN1CCN(c2csc3cc(C(F)(F)F)ccc23)CC1)c1ccc2c(c1)OCO2", "note": "[compound 815544]", "values": [{"measurement": "Ki", "setting": "[1]", "value": 62, "unit": "nM"}]}, {"molecule": "CCCCOc1ccc(C(=O)NCCCCN2CCN(c3csc4cc(C(F)(F)F)ccc34)CC2)cc1", "note": "[compound 815545]", "values": [{"measurement": "halpha 1 % I h = human", "setting": "Inh @ 10 uM", "value": 25, "unit": "% Inh @ 10 uM"}]}, {"molecule": "O=C(NCCCCN1CCN(c2csc3cc(C(F)(F)F)ccc23)CC1)c1sc2ccccc2c1Cl", "note": "[compound 815546]", "values": [{"measurement": "Ki", "setting": "[1]", "value": 59, "unit": "nM"}]}, {"molecule": "O=C(NCCCCN1CCN(c2csc3cc(C(F)(F)F)ccc23)CC1)c1ccc(Cl)cc1", "note": "[compound 815548]", "values": [{"measurement": "halpha 1 % I h = human", "setting": "Inh @ 1 uM", "value": 27, "unit": "% Inh @ 1 uM"}]}, {"molecule": "O=C(NCCCCN1CCN(c2csc3cc(C(F)(F)F)ccc23)CC1)c1ccc(Br)cc1", "note": "[compound 815551]", "values": [{"measurement": "Ki", "setting": "[1]", "value": 80, "unit": "nM"}]}, {"molecule": "COc1ccccc1C(=O)NCCCCN1CCN(c2csc3cc(C(F)(F)F)ccc23)CC1", "note": "[compound 815554]", "values": [{"measurement": "halpha 1 % I h = human", "setting": "Inh @ 1 uM", "value": 40, "unit": "% Inh @ 1 uM"}]}, {"molecule": "O=C(NCCCCN1CCN(c2csc3cc(C(F)(F)F)ccc23)CC1)c1ccc(C(F)(F)F)cc1", "note": "[compound 815555]", "values": [{"measurement": "halpha 1 % I h = human", "setting": "Inh @ 1 uM", "value": 24, "unit": "% Inh @ 1 uM"}]}, {"molecule": "O=C(NCCCCN1CCN(c2csc3cc(C(F)(F)F)ccc23)CC1)c1ccco1", "note": "[compound 815556]", "values": [{"measurement": "Ki", "setting": "[1]", "value": 12, "unit": "nM"}]}, {"molecule": "O=C(NCCCCN1CCN(c2csc3cc(C(F)(F)F)ccc23)CC1)c1c(F)cccc1F", "note": "[compound 815557]", "values": [{"measurement": "Ki", "setting": "[1]", "value": 72, "unit": "nM"}]}, {"molecule": "O=C(NCCCCN1CCCN(c2csc3cc(F)ccc23)CC1)c1ccc(OC(F)(F)F)cc1", "note": "[compound 822152]", "values": [{"measurement": "Ki", "setting": "[2]", "value": 122, "unit": "nM"}]}, {"molecule": "O=C(NCCCCN1CCCN(c2csc3cc(F)ccc23)CC1)c1cccc(F)c1", "note": "[compound 822154]", "values": [{"measurement": "Ki", "setting": "[2]", "value": 41.8, "unit": "nM"}]}, {"molecule": "COc1ccccc1C(=O)NCCCCN1CCCN(c2csc3cc(F)ccc23)CC1", "note": "[compound 822157]", "values": [{"measurement": "Ki", "setting": "[2]", "value": 27.4, "unit": "nM"}]}, {"molecule": "CC(C)(C)c1ccc(C(=O)NCCCCN2CCCN(c3csc4cc(F)ccc34)CC2)cc1", "note": "[compound 822198]", "values": [{"measurement": "Ki", "setting": "[2]", "value": 209, "unit": "nM"}]}]}
